# Results from patent US11802111B2, “Cyclobutyl amide monoacylglycerol lipase modulators” (Janssen Pharmaceutica NV, priority 2020, dated 2023).
# Target: human MGL from HeLa cells (Homo sapiens (Human), UniProt Q99685)
# Assay: MGL in vitro activity assay ([glycerol-1,3-3H]-oleoyl glycerol hydrolysis, activated carbon filtration)
# Assay type: biochemical
# Conditions: 300 nM [Glycerol-1,3-3H]-oleoyl glycerol, one hour
# Method in brief: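 Activity measured as tritium in the flow-through after activated carbon filtration of a 1 h reaction containing 300 nM 3H-oleoyl glycerol, compound and HeLa-derived human MGL. Compounds screened at 10 μM; IC50 series start at an empirically chosen highest concentration.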
# Sequence of human MGL from HeLa cells (Q99685 whole entry): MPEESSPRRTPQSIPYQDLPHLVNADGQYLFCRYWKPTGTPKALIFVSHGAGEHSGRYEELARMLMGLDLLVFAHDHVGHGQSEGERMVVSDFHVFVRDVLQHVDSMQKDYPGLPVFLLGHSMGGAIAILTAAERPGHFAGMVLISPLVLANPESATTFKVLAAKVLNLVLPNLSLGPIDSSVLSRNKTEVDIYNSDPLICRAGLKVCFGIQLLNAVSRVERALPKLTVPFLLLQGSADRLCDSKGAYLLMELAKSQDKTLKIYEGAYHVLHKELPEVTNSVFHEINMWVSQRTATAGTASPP
row,Structure (SMILES),IC50 [nM]
1,"COc1ccc(CC2CCC3(C2)CN(C(=O)[C@H]2C[C@@](C)(O)C2)C3)cc1 (mixture of isomers) [Example 205, (rac)-((1s,3s)-3-Hydroxy-3-methylcyclobutyl)(6-(4-methoxybenzyl)-2-azaspiro[3.4]octan-2-yl)methanone]",76
2,"C[C@]1(O)C[C@@H](C(=O)N2CC3(CCC(Cc4ccccc4)C3)C2)C1 (mixture of isomers) [Example 234, (rac)-(6-Benzyl-2-azaspiro[3.4]octan-2-yl)((1s,3s)-3-hydroxy-3-methylcyclobutyl)methanone]",98
3,"CC(C)(C)c1ccc(OC2CCC3(C2)CN(C(=O)[C@H]2C[C@@](C)(O)C2)C3)cc1 (mixture of isomers) [Example 240, (rac)-(6-(4-(tert-Butyl)phenoxy)-2-azaspiro[3.4]octan-2-yl)((1s,3s)-3-hydroxy-3-methylcyclobutyl)methanone]",122
4,"Cc1ccc(OC2CCC3(C2)CN(C(=O)[C@H]2C[C@@](C)(O)C2)C3)cc1C(F)(F)F (mixture of isomers) [Example 256, (rac)-((1s,3s)-3-Hydroxy-3-methylcyclobutyl)(6-(4-methyl-3-(trifluoromethyl)phenoxy)-2-azaspiro[3.4]octan-2-yl)methanone]",74
5,"C[C@]1(O)C[C@@H](C(=O)N2CC3(CCC(c4ccc5c(c4)OCC5)C3)C2)C1 (mixture of isomers) [Example 323, (rac)-(6-(2,3-Dihydrobenzofuran-6-yl)-2-azaspiro[3.4]octan-2-yl)((1s,3s)-3-hydroxy-3-methylcyclobutyl)methanone]",166
6,"C[C@]1(O)C[C@@H](C(=O)N2CC3(CCC(c4cccn5nccc45)C3)C2)C1 (mixture of isomers) [Example 324, (rac)-((1s,3s)-3-Hydroxy-3-methylcyclobutyl)(6-(pyrazolo[1,5-c]pyridin-4-yl)-2-azaspiro[3.4]octan-2-yl)methanone]",835
7,"C[C@]1(O)C[C@@H](C(=O)N2CC3(CCC(c4cc5ccccn5n4)C3)C2)C1 (mixture of isomers) [Example 325, (rac)-((1s,3s)-3-Hydroxy-3-methylcyclobutyl)(6-(pyrazolo[1,5-c]pyridin-2-yl)-2-azaspiro[3.4]octan-2-yl)methanone]",348
8,"Cn1ncc2c(C3CCC4(C3)CN(C(=O)[C@H]3C[C@@](C)(O)C3)C4)cccc21 (mixture of isomers) [Example 326, (rac)-((1s,3s)-3-Hydroxy-3-methylcyclobutyl)(6-(1-methyl-1H-indazol-4-yl)-2-azaspiro[3.4]octan-2-yl)methanone]",185
9,"C[C@]1(O)C[C@@H](C(=O)N2CC3(CCC(c4cccn5ccnc45)C3)C2)C1 (mixture of isomers) [Example 327, (rac)-((1s,3s)-3-Hydroxy-3-methylcyclobutyl)(6-(imidazo[1,2-c]pyridin-8-yl)-2-azaspiro[3.4]octan-2-yl)methanone]",3090
10,"C[C@]1(O)C[C@@H](C(=O)N2CC3(CCC(c4ccn5ccnc5c4)C3)C2)C1 (mixture of isomers) [Example 328, (rac)-((1s,3s)-3-Hydroxy-3-methylcyclobutyl)(6-(imidazo[1,2-a]pyridin-7-yl)-2-azaspiro[3.4]octan-2-yl)methanone]",3710
11,"C[C@]1(O)C[C@@H](C(=O)N2CC3(CCC(c4ncn5ccccc45)C3)C2)C1 (mixture of isomers) [Example 329, (rac)-((1s,3s)-3-Hydroxy-3-methylcyclobutyl)(6-(imidazo[1,5-a]pyridin-1-yl)-2-azaspiro[3.4]octan-2-yl)methanone]",683
12,"C[C@]1(O)C[C@@H](C(=O)N2CC3(CCC(c4ncn5c4CCCC5)C3)C2)C1 (mixture of isomers) [Example 330, (rac)-((1s,3s)-3-Hydroxy-3-methylcyclobutyl)(6-(5,6,7,8-tetrahydroimidazo[1,5-a]pyridin-1-yl)-2-azaspiro[3.4]octan-2-yl)methanone]",2380
13,"C[C@]1(O)C[C@@H](C(=O)N2CC3(CCC(c4cc5n(n4)CCCC5)C3)C2)C1 (mixture of isomers) [Example 331, (rac)-((1s,3s)-3-Hydroxy-3-methylcyclobutyl)(6-(4,5,6,7-tetrahydropyrazolo[1,5-a]pyridin-2-yl)-2-azaspiro[3.4]octan-2-yl)methanone]",1020
14,"Cc1ccc(OC2CCC3(C2)CN(C(=O)[C@H]2C[C@@](C)(O)C2)C3)cc1C1CC1 (mixture of isomers) [Example 332, (rac)-(6-(3-Cyclopropyl-4-methylphenoxy)-2-azaspiro[3.4]octan-2-yl)((1s,3s)-3-hydroxy-3-methylcyclobutyl)methanone]",136
15,"C[C@]1(O)C[C@@H](C(=O)N2CC3(CCC(Oc4cccc(C5CC5)c4F)C3)C2)C1 (mixture of isomers) [Example 334, (rac)-(6-(3-Cyclopropyl-2-fluorophenoxy)-2-azaspiro[3.4]octan-2-yl)((1s,3s)-3-hydroxy-3-methylcyclobutyl)methanone]",125
16,"C[C@]1(O)C[C@@H](C(=O)N2CC3(CCC(Oc4ccc(F)c(C5CC5)c4)C3)C2)C1 (mixture of isomers) [Example 335, (rac)-(6-(3-Cyclopropyl-4-fluorophenoxy)-2-azaspiro[3.4]octan-2-yl)((1s,3s)-3-hydroxy-3-methylcyclobutyl)methanone]",116
17,"Cc1ccc(OC2CCC3(C2)CN(C(=O)[C@H]2C[C@@](C)(O)C2)C3)nc1C(F)(F)F (mixture of isomers) [Example 336, (rac)-((1s,3s)-3-Hydroxy-3-methylcyclobutyl)(6-((5-methyl-6-(trifluoromethyl)pyridin-2-yl)oxy)-2-azaspiro[3.4]octan-2-yl)methanone]",91
18,"C[C@@H](c1ccccc1)[C@H]1CCC2(C1)CN(C(=O)[C@H]1C[C@@](C)(O)C1)C2 (relative stereo) [Example 338, ((1s,3*R)-3-Hydroxy-3-methylcyclobutyl)((*S)-6-((*R)-1-phenylethyl)-2-azaspiro[3.4]octan-2-yl)methanone]",60
19,"C[C@@H](c1ccccc1)[C@@H]1CCC2(C1)CN(C(=O)[C@H]1C[C@@](C)(O)C1)C2 (single isomer, unassigned) [Example 337, ((1s,3*S)-3-Hydroxy-3-methylcyclobutyl)((*R)-6-((*R)-1-phenylethyl)-2-azaspiro[3.4]octan-2-yl)methanone]",149
20,"COc1cc([C@@H]2CCC3(C2)CN(C(=O)[C@H]2C[C@@](C)(O)C2)C3)ccc1C (stereo in doubt) [Example 18, ((1s,3*S)-3-Hydroxy-3-methylcyclobutyl)((*R)-6-(3-methoxy-4-methylphenyl)-2-azaspiro[3.4]octan-2-yl)methanone]",64
21,"COc1cc([C@H]2CCC3(C2)CN(C(=O)[C@H]2C[C@@](C)(O)C2)C3)ccc1C (stereo in doubt) [Example 19, ((1s,3*R)-3-Hydroxy-3-methylcyclobutyl)((*S)-6-(3-methoxy-4-methylphenyl)-2-azaspiro[3.4]octan-2-yl)methanone]",67

# These reach a lower IC50. Values come first.
row,IC50 [nM],Structure (SMILES)
1,26,"CC(C)(C)c1cccc(OC2CCC3(C2)CN(C(=O)[C@H]2C[C@@](C)(O)C2)C3)c1 (mixture of isomers) [Example 243, (rac)-(6-(3-(tert-Butyl)phenoxy)-2-azaspiro[3.4]octan-2-yl)((1s,3s)-3-hydroxy-3-methylcyclobutyl)methanone]"
2,26,"Cc1c(OC2CCC3(C2)CN(C(=O)[C@H]2C[C@@](C)(O)C2)C3)cccc1C(F)(F)F (mixture of isomers) [Example 253, (rac)-((1s,3s)-3-Hydroxy-3-methylcyclobutyl)(6-(2-methyl-3-(trifluoromethyl)phenoxy)-2-azaspiro[3.4]octan-2-yl)methanone]"
3,21,"Cc1cc(OC2CCC3(C2)CN(C(=O)[C@H]2C[C@@](C)(O)C2)C3)ccc1C(F)(F)F (mixture of isomers) [Example 254, (rac)-((1s,3s)-3-Hydroxy-3-methylcyclobutyl)(6-(3-methyl-4-(trifluoromethyl)phenoxy)-2-azaspiro[3.4]octan-2-yl)methanone]"
4,15,"Cc1cc(C(F)(F)F)ccc1OC1CCC2(C1)CN(C(=O)[C@H]1C[C@@](C)(O)C1)C2 (mixture of isomers) [Example 255, (rac)-((1s,3s)-3-Hydroxy-3-methylcyclobutyl)(6-(2-methyl-4-(trifluoromethyl)phenoxy)-2-azaspiro[3.4]octan-2-yl)methanone]"
5,49,"CC(c1cccc2ccnn12)C1CC2(C1)CN(C(=O)[C@H]1C[C@@](C)(O)C1)C2 (mixture of isomers) [Example 316, (rac)-((1s,3s)-3-Hydroxy-3-methylcyclobutyl)(6-(1-(pyrazolo[1,5-a]pyridin-7-yl)ethyl)-2-azaspiro[3.3]heptan-2-yl)methanone]"
6,38,"CC(C)c1cccc(C2CCC3(C2)CN(C(=O)[C@H]2C[C@](O)(C(F)F)C2)C3)c1 (mixture of isomers) [Example 319, (rac)-((1s,3s)-3-(Difluoromethyl)-3-hydroxycyclobutyl)(6-(3-isopropylphenyl)-2-azaspiro[3.4]octan-2-yl)methanone]"
7,18,"CC(F)(F)c1ccc(C2CCC3(C2)CN(C(=O)[C@H]2C[C@@](C)(O)C2)C3)cc1 (mixture of isomers) [Example 320, (rac)-(6-(4-(1,1-Difluoroethyl)phenyl)-2-azaspiro[3.4]octan-2-yl)((1s,3s)-3-hydroxy-3-methylcyclobutyl)methanone]"
8,37,"Cc1c(OC2CCC3(C2)CN(C(=O)[C@H]2C[C@@](C)(O)C2)C3)cccc1C1CC1 (mixture of isomers) [Example 333, (rac)-(6-(3-Cyclopropyl-2-methylphenoxy)-2-azaspiro[3.4]octan-2-yl)((1s,3s)-3-hydroxy-3-methylcyclobutyl)methanone]"
9,48,"CC(C)c1cccc([C@@H]2CCC3(C2)CN(C(=O)[C@H]2C[C@@](C)(O)C2)C3C)c1 (relative stereo) [Example 318, ((1s,3*S)-3-Hydroxy-3-methylcyclobutyl)((6*R)-6-(3-isopropylphenyl)-1-methyl-2-azaspiro[3.4]octan-2-yl)methanone]"
10,48,"C[C@H](c1ccccc1)[C@H]1CCC2(C1)CN(C(=O)[C@H]1C[C@@](C)(O)C1)C2 (relative stereo) [Example 339, ((1s,3*R)-3-Hydroxy-3-methylcyclobutyl)((*S)-6-((*S)-1-phenylethyl)-2-azaspiro[3.4]octan-2-yl)methanone]"
